Converted amounts (≈) assume the structure as drawn.
Tests used:
[1] = test system: human embryonic kidney cells 293 (HEK293); test: Resazurin cytotoxicity assay, HEK 293; conditions: commercial compounds; unit from Table 8 head
Description: (§1) To identify marine samples with activity against MRSA, 1434 compounds from the AIMS Bioresources Library (provided by the Queensland Compound Library, Brisbane, Australia, now called Compounds Australia) were screened in a resazurin cell viability assay.
(§2) Toxicity of AIMS Extract Library. Human alveolar epithelial cells (A549), Madin-Darby canine kidney epithelial cells (MDCK), human leukaemia cells (THP-1), human hepatocellular carcinoma cells (Hep-G2) and human embryonic kidney cells 293 (HEK293) were grown and differentiated in complete RPMI (Roswell Park Memorial Institute Medium) and DMEM (Dulbecco’s Modified Eagle’s medium) tissue culture media (RPMIc and DMEMc, from the Thermo Fisher Scientific, Waltham, MA, USA) by adding 10% FBS, 200 µM L-glutamine and 1 mM HEPES buffer solution. To determine toxicity of the AIMS extract library, 2 × 10^5 of each cell type were added to a 96-well plate and left for 48 h in a humidified 5% CO2 incubator at 37 °C to adhere. Extract samples at a final concentration of 0.5 mg mL^−1 were added to the wells, then the plates incubated for 4 more days in a humidified 5% CO2 incubator at 37 °C. Then, resazurin (10 μL of 0.05% w/v) was added and after 4 h, fluorescence measured as described previously. The cell viability was calculated as percentage fluorescence relative to untreated cells.

[2] = test system: methicillin-resistant Staphylococcus aureus (MRSA); test: Resazurin bacterial inhibition assay (MIC), MRSA; type: cell-based; conditions: Staphylococcus aureus, MRSA; commercial compounds; 18 h, resazurin; read-out: Minimum Inhibitory Concentration MRSA
[3] = test system: Human alveolar epithelial cells (A549); test: Resazurin cytotoxicity assay, A549; conditions: commercial compounds; unit from Table 8 head
Description: as §1, §2

[4] = test system: P. aeruginosa PAO1; test: Resazurin bacterial inhibition assay (MIC), P. aeruginosa; type: cell-based; conditions: Pseudomonas aeruginosa, PAO1; commercial compounds; 18 h, resazurin; read-out: Minimum Inhibitory Concentration P. aeruginosa
[5] = test system: different test pathogens (MRSA, E. coli, P. aeruginosa, M. tuberculosis); test: Bacterial inhibition assay (MIC), summary over test pathogens; type: cell-based; conditions: read-out: MICs against MRSA, E. coli and P. aeruginosa
Protocol: For screening of the AIMS library, each test sample (10 µL) was dispensed into a separate well of a 96 well microtiter plates (final sample concentration 0.5 mg mL^−1) using sterile dH2O. […] Bacterial suspension (90 µL, OD600nm 0.001) was added to each well and plates were incubated at 37 °C for either 18 h (MRSA, P. aeruginosa PAO1, E. coli EC958) or 7 days for M. tuberculosis H37Rv as described previously. Resazurin (10 μL; 0.05% w/v) was added and plates were incubated for 3 h or 24 h (M. tuberculosis) at 37 °C. The inhibitory activity was calculated by visual determination of colour change within wells or detection of fluorescence at 590 nm using a FLUOstar Omega microplate reader (BMG Labtech, Ortenberg, Germany). Percentage survival was calculated in comparison to the average of untreated control wells after normalising for background readings.

[6] = test system: M. tuberculosis H37Rv; test: Resazurin bacterial inhibition assay (MIC), M. tuberculosis; type: cell-based; conditions: Mycobacterium tuberculosis, 168 h, commercial compounds, 7 days, read-out: Minimum Inhibitory Concentration M. tuberculosis H37Rv
[7] = test system: human hepatocellular carcinoma cells (Hep-G2); test: Resazurin cytotoxicity assay, HepG2; conditions: commercial compounds; unit from Table 8 head
Description: as §1, §2

[8] = test system: human leukaemia cells (THP-1); test: Resazurin cytotoxicity assay, THP-1; conditions: commercial compounds; unit from Table 8 head
Description: as §1
as §2, with “Extract samples at a final concentration of 0.5 mg mL^−1 were added to the wells, then the plates incubated for 4 more days in a humidified 5% CO2 incubator at 37 °C.” left out

[9] = test system: E. coli EC958; test: Resazurin bacterial inhibition assay (MIC), E. coli; type: cell-based; conditions: Escherichia coli, EC958; commercial compounds; 18 h, resazurin; read-out: Minimum Inhibitory Concentration E. coli

CCCCCCN [Hexylamine]
Minimum Toxicity Concentration HEK 293 [1]: >100 µM
MIC [2]: > 100 µM
Minimum Toxicity Concentration A549 [3]: >100 µM
MIC [4]: 50 µM (≈ 5.06 µg/mL)
MIC [5]: 50 to 100 µM (≈ 5.06 to 10.1 µg/mL)
MIC [6]: > 100 µM
Minimum Toxicity Concentration HepG2 [7]: >100 µM
Minimum Toxicity Concentration THP-1 [8]: >100 µM
MIC [9]: > 100 µM

CCCCCCN(CCCCCC)CCCCCC [Trihexylamine]
Minimum Toxicity Concentration HEK 293 [1]: 50 µM
MIC [2]: 3 µM (≈ 0.809 µg/mL)
Minimum Toxicity Concentration A549 [3]: >100 µM
MIC [4]: 6.5 µM (≈ 1.75 µg/mL)
MIC [5]: 3 to 6.5 µM (≈ 0.809 to 1.75 µg/mL)
MIC [6]: > 100 µM
Minimum Toxicity Concentration HepG2 [7]: >100 µM
Minimum Toxicity Concentration THP-1 [8]: >100 µM
MIC [9]: 3 µM (≈ 0.809 µg/mL)

Source: paper PMC8004798, “Identification of Bioactive Compounds from Marine Natural Products and Exploration of Structure-Activity Relationships (SAR)” (Antibiotics, 2021)
